{"source": "patent US10358469B2", "about": "“Methods and pharmaceutical compositions for the treatment of cancer” (INSERM (INSTITUT NATIONAL DE LA SANTÉ ET DE LA RECHERCHE …, priority 2014, dated 2019)", "key": {"solid tumor cell lines": {"system": "solid tumor cell lines", "assay": "Cell viability (MTT) of an array of solid tumor cell lines under low serum", "assay_type": "cell-based", "details": "increasing concentrations, 24 hours, low serum conditions, FIG. 1B", "protocol": "(A) Karpas 1106, SU-DHL-5, SeAx and HUT-78 cells were plated at a densities of 6×10^3 in 96 well plates (100 μL total volume per well) and treated for 24 hours in a 37° C. incubator (5% CO2) with increasing concentrations of the Antp-AAC-11-LZ (363-399). 20 μL MTS reagent was then added to each well and plates were incubated for an additional 4 hours. Absorbance was measured at 490 nm using a 96-well plate reader. The extent to which the Antp-AAC-11-LZ (363-399) peptide inhibited cell proliferation was calculated as a percentage of the absorbance in each well containing the Antp-AAC-11-LZ (363-399) peptide relative to wells containing no peptide (negative control). […]\nViability of cells cultured in the 96-well culture plates was assessed by measuring mitochondrial dehydrogenase activity, using the colorimetric CellTiter 96® AQueous One Solution Cell Proliferation Assay (Promega), according to the manufacturer′ instructions. […] The color can then be quantified using a simple colorimetric assay. The results are read on a multiwall scanning spectrophotometer (ELISA reader).\nThe inventors evaluated the capacity of the Antp-AAC-11-LZ (363-399) peptide to induce cell death a panel of hematologic and solid tumor cell lines, both P53 positive and P53 negative, derived from different tissues of origin, under low serum conditions (0.5-5%). […]"}, "HaCat cells": {"system": "HaCat cells", "assay": "Lactate dehydrogenase (LDH) release, HaCat cells", "assay_type": "cell-based", "details": "10 μM, FIG. 4B", "protocol": "FIG. 4: Antp-AAC-11-LZ (363-399) peptide induced necrotic cell death under low serum conditions. (A) SeAx or HaCat cells cultured in the absence of 10% FBS were left untreated or treated with 4 μM or 10 μM, respectively, of the Antp-AAC-11-LZ (363-399) peptide for the indicated durations. Cells were then analyzed by flow cytometry for PI staining. The results represent the mean number of PI-positive cells±S.D. from at least three independent experiments. (B) A549 and HaCat cells were plated at a densities of 4.5×10^3 in 96 well plates (100 μL total volume per well) and allowed to attach overnight in a 37° C. incubator (5% CO2). […] Lactate dehydrogenase (LDH) activity released in the culture medium was then assessed and data expressed as a percentage of the maximal level (Max) of LDH activity determined after total cell lysis±S.D. from at least three independent experiments.\nCytoplasmic lactate dehydrogenase (LDH) release into the cell culture supernatant occurs upon damage of the plasma membrane, and it is therefore considered a typical hallmark of necrosis. […] LDH activity was measured using the CytoTox 96® assay (Promega) by the reduction of lactate to pyruvate in the presence of NAD^+. […] Visible wavelength absorbance data are collected using a standard 96-well plate reader. […]\nNecrosis was further assessed based on lactate dehydrogenase (LDH) activity release in the culture medium. […]"}}, "data": [{"substance": "Ac-RQIKIWFKKQNRRMKWKKAKLNAEKLKDFKIRLQYFARGLQVYIRQLRLALQGKT-NH2 [Antp-AAC-11-LZ (363-399)]", "values": [{"measurement": "cell viability loss of the cancer cell lines", "setting": "solid tumor cell lines", "result": "marked cell viability loss"}, {"measurement": "LDH release in nonmalignant cells", "setting": "HaCat cells", "result": "little LDH release"}]}]}
